The results in this text go back to patent publication US20230165252A1, “ACTIVE COMPOUND COMBINATIONS” (Bayer Aktiengesellschaft, priority 2020, published 2023).

Holding throughout (assay type): cell-based
One assay concerns Diaporthe citri. Briefly: in vitro-Test with Diaporthe citri (microtiter growth inhibition). Conditions: applied alone. The procedure:
(§1) If the actual fungicidal activity exceeds the calculated value, then the activity of the combination is super-additive, i.e. a synergistic effect exists. In this case, the efficacy, which was actually observed, must be greater than the value for the expected efficacy (E), that was calculated from the abovementioned formula.
(§2) Example: In Vitro-Test with Fungal Microorganisms
(§3) Wells of 96-well microtiter plates are filled with 10 μl of a preparation of test compound or compound combination in methanol+emulsifier alkylaryl-polyglycol-ether. Thereafter, the solvent is evaporated in a hood. At the next step, 100 μl of liquid potato dextrose medium is given into each well, that has been amended with an appropriate concentration of spores or mycelium suspension of the test fungus.
(§4) With the aid of a photometer, the extinction in all wells is measured at the wavelength of 620 nm.
(§5) The microtiter plates are incubated at 20° C. and 85% relative humidity. The inhibition of growth is determined again photometrically 3-5 days after the application. Efficacy is calculated in relation to the untreated control, 0% efficacy means fungal growth as high as in untreated control while 100% efficacy means no fungal growth is measured.

The test system of a further assay is Fusarium culmorum. Briefly: in vitro-Test with Fusarium culmorum (microtiter growth inhibition). The procedure:
(§6) The degree of efficacy expressed in % is denoted: 0% means an efficacy, which corresponds to that of the control, while an efficacy of 100% means that no disease is observed.
as §1, §2, §3, §4, §5

A further assay concerns Cercospora beticola. Briefly: in vitro-Test with Cercospora beticola (microtiter growth inhibition). Conditions: alone. The procedure:
as §6, §1, §2, §3, §4, §5

The next assay has as its system Cordana musae. Briefly: in vitro-Test with Cordana musae (microtiter growth inhibition). Conditions: single substance. The procedure:
as §6, §1, §2, §3, §4, §5

In assay [1] the test system is Ustilago segetum var. avenae. Briefly: in vitro-Test with Ustilago segetum var. avenae (microtiter growth inhibition). Conditions: single compound. The procedure: as §6, §1, §2, §3, §4, §5
In another assay the test system is Alternaria alternate. Briefly: in vitro-Test with Alternaria alternate (microtiter growth inhibition). The settings on record: for inhibition of growth at 0.008 ppm / inhibition of growth at 0.04 ppm / inhibition of growth at 1 ppm / inhibition of growth at 0.2 ppm / inhibition of growth at 0.8 ppm / inhibition of growth at 4 ppm / inhibition of growth at 20 ppm: Alternaria. On the procedure: as §6, §1, §2, §3, §4, §5

The test system of a further assay is Botrytis cinerea. Briefly: in vitro-Test with Botrytis cinerea (microtiter growth inhibition). The settings on record: applied alone. On the procedure: as §6, §1, §2, §3, §4, §5
Setting [2] is: Diaporthe citri, 0.04 ppm, read-out: Efficacy.
The mark [3] stands for this setting: Diaporthe citri, 1.0 ppm, read-out: Efficacy.
Setting [4] is: Fusarium culmorum, 0.04 ppm, read-out: Efficacy.
[5] abbreviates: Fusarium culmorum, 1.0 ppm, read-out: Efficacy.
Where [6] appears, read: Cercospora beticola, 0.008 ppm, read-out: Efficacy %.
Setting [7] is: Cercospora beticola, read-out: Efficacy %.
[8] abbreviates: Cercospora beticola, 1.0 ppm, read-out: Efficacy %.
[9] abbreviates: 0.008 ppm, alone, read-out: Efficacy %.
Where [10] appears, read: 0.04 ppm, alone, read-out: Efficacy %.
The mark [11] stands for this setting: 1.0 ppm, alone, read-out: Efficacy %.
The mark [12] stands for this setting: applied alone, 0.008 ppm, read-out: Efficacy.
Setting [13] is: applied alone, 0.2 ppm, read-out: Efficacy.
Setting [14] is: Diaporthe citri, read-out: Efficacy.
Setting [15] is: Fusarium culmorum, read-out: Efficacy.
The mark [16] stands for this setting: Neocordana musae, read-out: Efficacy.
Where [17] appears, read: applied alone, read-out: Efficacy.

“And” between values parts separate entries of the source, which are not always exact repeats. Identical values can stand only once. Like-named read-outs stand apart in the source and are kept apart here.

Consider `CC1COC(Cn2cncn2)(c2ccc(Oc3ccc(Cl)cc3)cc2Cl)O1` (stereo not drawn) [difenoconazole], for which the inhibition of growth at 0.04 ppm in the assay on Diaporthe citri (setting [2]) worked out at 13%; in the assay on Fusarium culmorum (setting [4]) it was 8%; in assay [1] (0.04 ppm, read-out: Efficacy %), 4%; with Alternaria alternate (setting [10]), 4%. For the same compound, the inhibition of growth at 1 ppm in the assay on Diaporthe citri (setting [3]) stood at 88%; in the assay on Fusarium culmorum (setting [5]) it was 0%; in the assay with Cercospora beticola (setting [8]), 100%; with Cordana musae (Neocordana musae, 1.0 ppm, read-out: Efficacy), 42%; in assay [1] (1.0 ppm, read-out: Efficacy %), 100%; in the assay with Alternaria alternate (setting [11]), 98%. The Efficacy with Diaporthe citri (0.008 ppm) worked out at 0%. Also, the inhibition of growth at 0.008 ppm was found to be 3% in the assay with Fusarium culmorum (Fusarium culmorum, 0.008 ppm, read-out: Efficacy); 9% with Cercospora beticola (setting [6]); 0% in the assay with Cordana musae (Neocordana musae, 0.008 ppm, read-out: Efficacy); 8% with Alternaria alternate (setting [9]); 11% with Alternaria alternate (setting [12]). The inhibition of growth at 0.2 ppm worked out at 0% in the assay on Fusarium culmorum (Fusarium culmorum, 0.2 ppm, read-out: Efficacy); 68% with Cercospora beticola (setting [7]); 70% in assay [1] (0.2 ppm, read-out: Efficacy %); 3% with Alternaria alternate (setting [13]).
Consider `N#Cc1sc2c(=O)c3ccccc3c(=O)c=2sc1C#N` [dithianon], for which the inhibition of growth at 0.8 ppm in the assay with Diaporthe citri (Diaporthe citri, 0.8 ppm, read-out: Efficacy) is 34%; in the assay on Fusarium culmorum (setting [15]) it was 0%; with Cordana musae (setting [16]) it was 9%; in the assay with Alternaria alternate (alone, read-out: Efficacy %), 0%. The inhibition of growth at 4 ppm with Diaporthe citri (setting [14]) was found to be 98%; in the assay on Fusarium culmorum (setting [15]) it was 39%; with Cercospora beticola (Cercospora beticola, 4 ppm, read-out: Efficacy %) it was 99%; in the assay on Cordana musae (setting [16]), 99%; with Alternaria alternate (alone, read-out: Efficacy %) it was 71%. Besides, the inhibition of growth at 20 ppm in the assay with Diaporthe citri (setting [14]) stood at 97%; with Fusarium culmorum (setting [15]), 100%; in the assay with Cercospora beticola (setting [7]), 98%; with Cordana musae (setting [16]), 98%; in the assay with Alternaria alternate (alone, read-out: Efficacy %) it was 100%.
Take `COc1ccnc(C(=O)N[C@H]2COC(=O)[C@H](Cc3ccccc3)[C@@H](OC(=O)C(C)C)[C@H](C)OC2=O)c1OCOC(=O)C(C)C` [fenpicoxamid]: the Efficacy with Diaporthe citri (0.04 ppm) is 0%; with Diaporthe citri (0.2 ppm), 5% and 0%; in the assay on Diaporthe citri (1.0 ppm), 87% and 73% and 75%; in the assay with Diaporthe citri (5.0 ppm) it was 94% and 93% and 90%; in the assay on Fusarium culmorum (0.04 ppm) it was 0%; in the assay with Fusarium culmorum (0.2 ppm) it was 0%. Further, the Efficacy worked out at 0% in the assay on Fusarium culmorum (1.0 ppm); 0% in the assay on Fusarium culmorum (5.0 ppm); 50% in the assay with Cordana musae (1.0 ppm); 74% in the assay on Cordana musae (5.0 ppm); 64% in the assay with Alternaria alternate (applied alone, 5.0 ppm). Besides, the Efficacy % in the assay with Cercospora beticola (1.0 ppm) was 74% and 58% and 42%; in the assay with Cercospora beticola (5.0 ppm), 86% and 78%; in the assay with Alternaria alternate (0.2 ppm, alone), 10% and 4%; in the assay with Alternaria alternate (5.0 ppm, alone), 80% and 81%.
`O=C(NCCc1ncc(C(F)(F)F)cc1Cl)c1ccccc1C(F)(F)F` [fluopyram]: the inhibition of growth at 4 ppm is 0% in the assay on Diaporthe citri (setting [14]); 0% in the assay with Fusarium culmorum (setting [15]); 5% in the assay with Cordana musae (setting [16]); 94% in the assay on Alternaria alternate (alone, read-out: Efficacy %); 85% in the assay on Alternaria alternate (setting [17]). Moreover, the inhibition of growth at 20 ppm in the assay on Diaporthe citri (setting [14]) stood at 26%; in the assay on Fusarium culmorum (setting [15]), 3%; in the assay with Cercospora beticola (setting [7]), 17%; in the assay on Cordana musae (setting [16]) it was 20%; with Alternaria alternate (setting [17]), 99%. Further, the inhibition of growth at 0.8 ppm is 1% with Fusarium culmorum (setting [15]); 0% in the assay with Cordana musae (setting [16]); 77% in the assay with Alternaria alternate (alone, read-out: Efficacy %); 81% in the assay on Alternaria alternate (setting [17]).
Turning to `CC(C)c1ccc(Cl)cc1CN(C(=O)c1c(C(F)F)nn(C)c1F)C1CC1` [isoflucypram], the Efficacy in the assay with Diaporthe citri (0.008 ppm) was 0%; in the assay on Diaporthe citri (0.04 ppm), 0%; with Diaporthe citri (0.2 ppm), 0%; with Diaporthe citri (1.0 ppm), 49% and 41%; in the assay with Fusarium culmorum (0.008 ppm), 0%; in the assay with Fusarium culmorum (0.04 ppm) it was 0%. Besides, the Efficacy is 0% with Fusarium culmorum (0.2 ppm); 0% in the assay on Fusarium culmorum (1.0 ppm); 0% in the assay on Cordana musae (0.008 ppm); 10% and 12% with Cordana musae (0.04 ppm); 0% in the assay on Cordana musae (0.2 ppm); 18% and 8% with Cordana musae (1.0 ppm). Besides, the Efficacy with Alternaria alternate (applied alone, 0.008 ppm) is listed as 53%; with Alternaria alternate (applied alone, 0.04 ppm), 71%; in the assay on Alternaria alternate (applied alone, 0.2 ppm), 73%. Besides, the Efficacy % with Cercospora beticola (0.008 ppm) was 11%; in the assay with Cercospora beticola (0.04 ppm) it was 16%; in the assay with Cercospora beticola (1.0 ppm) it was 35% and 39%; in assay [1] (0.008 ppm), 0%; in assay [1] (0.04 ppm) it was 45%; in assay [1] (0.2 ppm) it was 100%. Also, the Efficacy % in assay [1] (1.0 ppm) was 100%; in the assay on Alternaria alternate (0.008 ppm, alone), 44% and 41%; in the assay with Alternaria alternate (0.04 ppm, alone), 69% and 76%; in the assay with Alternaria alternate (0.2 ppm, alone), 85% and 81%; in the assay with Alternaria alternate (1.0 ppm, alone), 74%.
For the compound `CC(C)(C)C(O)(CCc1ccc(Cl)cc1)Cn1cncn1` (stereo not drawn) [tebuconazole], the inhibition of growth at 0.04 ppm turned out to be 47% in the assay with Diaporthe citri (setting [2]); 0% in the assay on Fusarium culmorum (setting [4]); 22% with Cercospora beticola (Cercospora beticola, 0.04 ppm, read-out: Efficacy %); 9% in the assay with Alternaria alternate (setting [10]); 14% in the assay with Alternaria alternate (applied alone, 0.04 ppm, read-out: Efficacy). The inhibition of growth at 0.2 ppm with Diaporthe citri (Diaporthe citri, 0.2 ppm, read-out: Efficacy) is 96%; with Cercospora beticola (setting [7]), 83%; in the assay with Cordana musae (Neocordana musae, 0.2 ppm, read-out: Efficacy), 2%; in the assay on Alternaria alternate (0.2 ppm, alone, read-out: Efficacy %) it was 32%; in the assay with Alternaria alternate (setting [13]), 48%. The inhibition of growth at 1 ppm in the assay with Diaporthe citri (setting [3]) was found to be 98%; with Fusarium culmorum (setting [5]), 99%; in the assay with Cercospora beticola (setting [8]), 100%; with Alternaria alternate (setting [11]), 98%; in the assay with Alternaria alternate (applied alone, 1.0 ppm, read-out: Efficacy), 99%. The inhibition of growth at 0.008 ppm in the assay on Cercospora beticola (setting [6]) was 0%; with Alternaria alternate (setting [9]), 11%; in the assay with Alternaria alternate (setting [12]), 0%. The Efficacy amounted to 0% with Botrytis cinerea (0.008 ppm), 8% in the assay on Botrytis cinerea (0.04 ppm), 20% with Botrytis cinerea (0.2 ppm) and 100% with Botrytis cinerea (1.0 ppm).
